HELM strings list units from the 5' end as sugar, base in round brackets, then linkage (d deoxyribose, r ribose, m 2'-O-methyl, p phosphodiester). Strings are as the collection lists them; they lack the last nucleoside at the 3' end of the tested compound. [moe] = 2'-O-(2-methoxyethyl) (MOE); [sp] = phosphorothioate linkage; [m5C] = 5-methylcytosine
These substances were tested against ATXN2 (assay: mouse, dose not given). Conditions: ASO.
With “RNA1{[moe](T)[sp].[moe](G)p.[moe](T)p.[moe](A)p.[moe]([m5C])p.d(T)[sp].d(T)[sp].d(T)[sp].d(T)[sp].d([m5C])[sp].d(T)[sp].d([m5C])[sp].d(A)[sp].d(T)[sp].d(G)[sp].[moe](T)p.[moe](G)p.[moe]([m5C])[sp].[moe](G)}$$$$ (last 3' nucleoside missing)” the 3 h FOB score was 1 score 0-7. “RNA1{[moe](T)[sp].[moe](G)p.[moe](T)p.[moe](A)p.[moe]([m5C])p.d(T)[sp].d(T)[sp].d([m5C])[sp].d(A)[sp].d(A)[sp].d(A)[sp].d(T)[sp].d(T)[sp].d(T)[sp].d(T)[sp].[moe](G)p.[moe](T)p.[moe](T)[sp].[moe](T)}$$$$ (last 3' nucleoside missing)” gave a 3 h FOB score of 0 score 0-7. In the case of “RNA1{[moe](T)[sp].[moe](G)p.[moe](T)p.[moe](A)p.[moe]([m5C])p.d(T)[sp].d(T)[sp].d([m5C])[sp].d(A)[sp].d([m5C])[sp].d(A)[sp].d(T)[sp].d(T)[sp].d(T)[sp].d(G)[sp].[moe](G)p.[moe](A)p.[moe](G)[sp].[moe]([m5C])}$$$$ (last 3' nucleoside missing)”, the 3 h FOB score is reported as 2 score 0-7. In the case of “RNA1{[moe](T)[sp].[moe](G)p.[moe](T)p.[moe](A)p.d([m5C])[sp].d(T)[sp].d(T)[sp].d([m5C])[sp].d(A)[sp].d([m5C])[sp].d(A)[sp].d(T)[sp].d(T)[sp].d(T)[sp].[moe](G)p.[moe](G)p.[moe](A)p.[moe](G)[sp].[moe]([m5C])}$$$$ (last 3' nucleoside missing)”, the 3 h FOB score is reported as 1 score 0-7. “RNA1{[moe](T)[sp].[moe](G)p.[moe](T)p.[moe](G)p.[moe](A)p.d(G)[sp].d(T)[sp].d(T)[sp].d([m5C])[sp].d(A)[sp].d([m5C])[sp].d([m5C])[sp].d(T)[sp].d(G)[sp].d([m5C])[sp].[moe](A)p.[moe](T)p.[moe]([m5C])[sp].[moe]([m5C])}$$$$ (last 3' nucleoside missing)” gave a 3 h FOB score of 3.5 score 0-7. “RNA1{[moe](T)[sp].[moe](G)p.[moe](T)p.[moe](G)p.[moe](T)p.d(A)[sp].d(T)[sp].d(T)[sp].d(T)[sp].d(T)[sp].d(T)[sp].d([m5C])[sp].d(T)[sp].d(T)[sp].d([m5C])[sp].[moe]([m5C])p.[moe](T)p.[moe]([m5C])[sp].[moe](A)}$$$$ (last 3' nucleoside missing)” was tested, and the 3 h FOB score was 0.25 score 0-7. For “RNA1{[moe](T)[sp].[moe](G)p.[moe](T)p.[moe](G)p.[moe](T)p.d(T)[sp].d([m5C])[sp].d(A)[sp].d(T)[sp].d(G)[sp].d(A)[sp].d([m5C])[sp].d(T)[sp].d(T)[sp].d(T)[sp].[moe]([m5C])p.[moe](A)p.[moe](A)[sp].[moe](G)}$$$$ (last 3' nucleoside missing)”, the 3 h FOB score was 4.5 score 0-7. For “RNA1{[moe](T)[sp].[moe](G)p.[moe](T)p.[moe](T)p.[moe](A)p.d([m5C])[sp].d(T)[sp].d(G)[sp].d(T)[sp].d(T)[sp].d(T)[sp].d([m5C])[sp].d(G)[sp].d(A)[sp].d([m5C])[sp].[moe]([m5C])p.[moe](T)p.[moe]([m5C])[sp].[moe](T)}$$$$ (last 3' nucleoside missing)”, the 3 h FOB score was 6.25 score 0-7. Substance “RNA1{[moe](T)[sp].[moe](G)p.[moe](T)p.[moe](T)p.[moe](A)p.d([m5C])[sp].d(T)[sp].d(T)[sp].d(A)[sp].d(T)[sp].d(T)[sp].d(A)[sp].d([m5C])[sp].d([m5C])[sp].d(T)[sp].[moe](T)p.[moe]([m5C])p.[moe]([m5C])[sp].[moe](T)}$$$$ (last 3' nucleoside missing)” has a 3 h FOB score of 4 score 0-7. For “RNA1{[moe](T)[sp].[moe](G)p.[moe](T)p.[moe](T)p.[moe](G)p.d(T)[sp].d(T)[sp].d(G)[sp].d(T)[sp].d(T)[sp].d(T)[sp].d(A)[sp].d([m5C])[sp].d(A)[sp].d(T)[sp].[moe](T)p.[moe](A)p.[moe](T)[sp].[moe](T)}$$$$ (last 3' nucleoside missing)”, the 3 h FOB score was 0 score 0-7.

From the OligoGym collection
